# ChEMBL document CHEMBL1131541, “New synthetic inhibitors of microtubule depolymerization” (1998)
# Active and inactive are the calls of the source. The calls are words filed in the database; no cut-off is given here.
# Target: Tubulin beta chain (Bos taurus) (UniProt Q6B856)
# Assay: Compound was tested for its effect on microtubule stabilization isolated from bovine brain; NS: not significant
# Chain of Tubulin beta chain (Bos taurus) (Q6B856 whole entry): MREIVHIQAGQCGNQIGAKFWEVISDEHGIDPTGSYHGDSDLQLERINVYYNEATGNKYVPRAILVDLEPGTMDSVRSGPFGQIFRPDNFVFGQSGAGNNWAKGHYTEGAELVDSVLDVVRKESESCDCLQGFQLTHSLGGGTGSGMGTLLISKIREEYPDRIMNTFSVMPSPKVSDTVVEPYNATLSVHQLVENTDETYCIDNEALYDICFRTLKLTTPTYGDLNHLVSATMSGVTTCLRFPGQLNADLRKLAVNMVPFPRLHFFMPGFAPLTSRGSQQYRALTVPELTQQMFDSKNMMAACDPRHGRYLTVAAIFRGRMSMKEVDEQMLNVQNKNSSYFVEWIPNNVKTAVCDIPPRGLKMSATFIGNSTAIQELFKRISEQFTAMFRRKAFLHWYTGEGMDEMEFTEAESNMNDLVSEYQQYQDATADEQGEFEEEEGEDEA
row,SMILES,Relative stability
1,CCOC(=O)N[C@@H](c1ccc(OCc2ccccc2)cc1)[C@@H](O)C(=O)OC1CC2C(C)(C)C1(C)[C@@]13C[C@H](C)c4ccccc4[C@@]21O3 (stereo partly specified),inactive
2,C=C1C[C@@]23O[C@]2(c2ccccc21)C1CC(OC(=O)[C@H](O)[C@@H](NC(=O)NCC)c2ccccc2)C3(C)C1(C)C (stereo partly specified),inactive
3,CCCCOC(=O)N[C@@H](c1ccccc1)[C@@H](O)C(=O)OC1CC2C(C)(C)C1(C)[C@@]13C[C@H](C)c4ccccc4[C@@]21O3 (stereo partly specified),inactive
4,CCOC(=O)N[C@@H](c1ccccc1)[C@@H](O)C(=O)OC1CC2C(C)(C)C1(C)[C@@]13C[C@@H](C)c4ccccc4[C@@]21O3 (stereo partly specified),inactive
5,C=C1C[C@@]23O[C@]2(c2ccccc21)C1CC(OC(=O)[C@H](O)[C@@H](NC(=O)OCC)c2ccc(OCc4ccccc4)cc2)C3(C)C1(C)C (stereo partly specified),inactive
6,CCNC(=O)N[C@@H](c1ccccc1)[C@@H](O)C(=O)OC1CC2C(C)(C)C1(C)[C@@]13C[C@H](C)c4ccccc4[C@@]21O3 (stereo partly specified),inactive

# Target: Tubulin beta chain (Bos taurus) (UniProt Q6B856)
# Assay: Effect on microtubule stabilization isolated from bovine brain
row,SMILES,Relative stability [%]
1,CCOC(=O)N[C@@H](c1ccccc1)[C@@H](O)C(=O)OC1CC2C(C)(C)C1(C)[C@@]13C[C@H](C)c4ccccc4[C@@]21O3 (stereo partly specified),209
2,C=C1C[C@@]23O[C@]2(c2ccccc21)C1CC(OC(=O)[C@H](O)[C@@H](NC(=O)OCC)c2ccncc2)C3(C)C1(C)C (stereo partly specified),423
3,COC(=O)N[C@@H](c1ccncc1)[C@@H](O)C(=O)OC1CC2C(C)(C)C1(C)[C@@]13C[C@](O)(COC(C)=O)c4ccccc4[C@@]21O3 (stereo partly specified),116
4,C=C1C[C@@]23O[C@]2(c2ccccc21)C1CC(OC(=O)[C@H](O)[C@@H](NC(=O)OC)c2ccccc2)C3(C)C1(C)C (stereo partly specified),164
5,CCCCOC(=O)N[C@@H](c1ccncc1)[C@@H](O)C(=O)OC1CC2C(C)(C)C1(C)[C@@]13CC(C)c4ccccc4[C@@]21O3 (stereo partly specified),-3
6,CCOC(=O)N[C@@H](c1ccncc1)[C@@H](O)C(=O)OC1CC2C(C)(C)C1(C)[C@@]13C[C@](O)(CO)c4ccccc4[C@@]21O3 (stereo partly specified),327
7,C=C1C[C@@]23O[C@]2(c2ccccc21)C1CC(OC(=O)[C@H](O)[C@@H](NC(C)=O)c2ccccc2)C3(C)C1(C)C (stereo partly specified),89
8,CCCCOC(=O)N[C@@H](c1ccc(O)cc1)[C@@H](O)C(=O)OC1CC2C(C)(C)C1(C)[C@@]13CC(C)c4ccccc4[C@@]21O3 (stereo partly specified),80
9,CCCC(=O)N[C@@H](c1ccccc1)[C@@H](O)C(=O)OC1CC2C(C)(C)C1(C)[C@@]13C[C@H](C)c4ccccc4[C@@]21O3 (stereo partly specified),168
10,C=C1C[C@@]23O[C@]2(c2ccccc21)C1CC(OC(=O)[C@H](O)[C@@H](NC(=O)OCC)c2ccccc2)C3(C)C1(C)C (stereo partly specified),228
11,C=C1C[C@@]23O[C@]2(c2ccccc21)C1CC(OC(=O)[C@H](O)[C@@H](NC(=O)OCCCC)c2ccccc2)C3(C)C1(C)C (stereo partly specified),83
12,C=C1C[C@@]23O[C@]2(c2ccccc21)C1CC(OC(=O)[C@H](O)[C@@H](NC(=O)OC(C)(C)C)c2ccccc2)C3(C)C1(C)C (stereo partly specified),27
13,CCOC(=O)N[C@@H](c1ccc(F)cc1)[C@@H](O)C(=O)OC1CC2C(C)(C)C1(C)[C@@]13C[C@H](C)c4ccccc4[C@@]21O3 (stereo partly specified),139
14,C=C1C[C@@]23O[C@]2(c2ccccc21)C1CC(OC(=O)[C@H](O)[C@@H](NC(=O)OCC)c2ccc(O)cc2)C3(C)C1(C)C (stereo partly specified),130
15,C=C1C[C@@]23O[C@]2(c2ccccc21)C1CC(OC(=O)[C@H](O)[C@@H](NC(=O)OCC)c2ccc(Cl)cc2)C3(C)C1(C)C (stereo partly specified),163
16,C=C1C[C@@]23O[C@]2(c2ccccc21)C1CC(OC(=O)[C@H](O)[C@@H](NC(=O)OCC)c2ccc(C)cc2)C3(C)C1(C)C (stereo partly specified),142
17,CCOC(=O)N[C@@H](c1ccncc1)[C@@H](O)C(=O)OC1CC2C(C)(C)C1(C)[C@@]13C[C@@H](C)c4ccccc4[C@@]21O3 (stereo partly specified),227
18,CCOC(=O)N[C@@H](c1ccc(OC)cc1)[C@@H](O)C(=O)OC1CC2C(C)(C)C1(C)[C@@]13C[C@H](C)c4ccccc4[C@@]21O3 (stereo partly specified),125
19,COC(=O)N[C@@H](c1ccsc1)[C@@H](O)C(=O)OC1CC2C(C)(C)C1(C)[C@@]13CC(C)c4ccccc4[C@@]21O3 (stereo partly specified),316
20,CCOC(=O)N[C@@H](c1ccsc1)[C@@H](O)C(=O)OC1CC2C(C)(C)C1(C)[C@@]13C[C@H](C)c4ccccc4[C@@]21O3 (stereo partly specified),788
21,CCOC(=O)N[C@@H](c1cccc(F)c1)[C@@H](O)C(=O)OC1CC2C(C)(C)C1(C)[C@@]13C[C@H](C)c4ccccc4[C@@]21O3 (stereo partly specified),139
22,C=C1C[C@@]23O[C@]2(c2ccccc21)C1CC(OC(=O)[C@H](O)[C@@H](NC(=O)OCC)c2ccc(OC)cc2)C3(C)C1(C)C (stereo partly specified),95
23,CCOC(=O)N[C@@H](c1cccnc1)[C@@H](O)C(=O)OC1CC2C(C)(C)C1(C)[C@@]13C[C@H](C)c4ccccc4[C@@]21O3 (stereo partly specified),119
24,CCOC(=O)N[C@@H](c1cccs1)[C@@H](O)C(=O)OC1CC2C(C)(C)C1(C)[C@@]13C[C@H](C)c4ccccc4[C@@]21O3 (stereo partly specified),311
25,CCCCNC(=O)N[C@@H](c1ccccc1)[C@@H](O)C(=O)OC1CC2C(C)(C)C1(C)[C@@]13C[C@H](C)c4ccccc4[C@@]21O3 (stereo partly specified),130
26,CCOC(=O)N[C@@H](c1ccc(C)cc1)[C@@H](O)C(=O)OC1CC2C(C)(C)C1(C)[C@@]13C[C@H](C)c4ccccc4[C@@]21O3 (stereo partly specified),152
27,COC(=O)N[C@@H](c1ccccc1)[C@@H](O)C(=O)OC1CC2C(C)(C)C1(C)[C@@]13C[C@H](C)c4ccccc4[C@@]21O3 (stereo partly specified),244
28,CCCC(=O)N[C@@H](c1ccsc1)[C@@H](O)C(=O)OC1CC2C(C)(C)C1(C)[C@@]13CC(C)c4ccccc4[C@@]21O3 (stereo partly specified),91

row,SMILES,Relative stability [%]
1,CCOC(=O)N[C@@H](c1ccoc1)[C@@H](O)C(=O)OC1CC2C(C)(C)C1(C)[C@@]13C[C@H](C)c4ccccc4[C@@]21O3 (stereo partly specified),190
2,CCOC(=O)N[C@@H](c1ccc(Cl)cc1)[C@@H](O)C(=O)OC1CC2C(C)(C)C1(C)[C@@]13C[C@H](C)c4ccccc4[C@@]21O3 (stereo partly specified),193
3,C[C@H]1C[C@@]23O[C@]2(c2ccccc21)C1CC(OC(=O)[C@H](O)[C@@H](NC(=O)CCC2CCCC2)c2ccccc2)C3(C)C1(C)C (stereo partly specified),86
4,C[C@H]1C[C@@]23O[C@]2(c2ccccc21)C1CC(OC(=O)[C@H](O)[C@@H](NC(=O)OC(C)(C)C)c2ccccc2)C3(C)C1(C)C (stereo partly specified),148
5,C=C1C[C@@]23O[C@]2(c2ccccc21)C1CC(OC(=O)[C@H](O)[C@@H](NC(=O)OCC)c2ccsc2)C3(C)C1(C)C (stereo partly specified),788
6,C=C1C[C@@]23O[C@]2(c2ccccc21)C1CC(OC(=O)[C@H](O)[C@@H](NC(=O)OCC)c2ccc(F)cc2)C3(C)C1(C)C (stereo partly specified),152
7,COC(=O)N[C@@H](c1ccncc1)[C@@H](O)C(=O)OC1CC2C(C)(C)C1(C)[C@@]13C[C@]4(CO4)c4ccccc4[C@@]21O3 (stereo partly specified),423
8,CCOC(=O)N[C@@H](c1ccncc1)[C@@H](O)C(=O)OC1CC2C(C)(C)C1(C)[C@@]13C[C@H](C)c4ccccc4[C@@]21O3 (stereo partly specified),1300
9,C=C1C[C@@]23O[C@]2(c2ccccc21)C1CC(OC(=O)[C@H](O)[C@@H](NC(=O)CC(C)C)c2ccccc2)C3(C)C1(C)C (stereo partly specified),101
10,C=C1C[C@@]23O[C@]2(c2ccccc21)C1CC(OC(=O)[C@H](O)[C@@H](NC(=O)CC)c2ccccc2)C3(C)C1(C)C (stereo partly specified),108
11,C=C1C[C@@]23O[C@]2(c2ccccc21)C1CC(OC(=O)[C@H](O)[C@@H](NC(=O)NC(C)(C)C)c2ccccc2)C3(C)C1(C)C (stereo partly specified),92
12,CCOC(=O)N[C@@H](c1ccccc1)[C@@H](O)C(=O)OC1CC2C(C)(C)C1(C)[C@@]13C[C@](O)(COC(C)=O)c4ccccc4[C@@]21O3 (stereo partly specified),22
13,CCOC(=O)N[C@@H](c1ccccc1)[C@@H](O)C(=O)OC1CC2C(C)(C)C1(C)[C@@]13C[C@](O)(CO)c4ccccc4[C@@]21O3 (stereo partly specified),20
14,C=C1C[C@@]23O[C@]2(c2ccccc21)C1CC(OC(=O)[C@H](O)[C@@H](NC(=O)OCC)c2cccs2)C3(C)C1(C)C (stereo partly specified),215
15,C=C1C[C@@]23O[C@]2(c2ccccc21)C1CC(OC(=O)[C@H](O)[C@@H](NC(=O)NC(C)C)c2ccccc2)C3(C)C1(C)C (stereo partly specified),103
16,C=C1C[C@@]23O[C@]2(c2ccccc21)C1CC(OC(=O)[C@H](O)[C@@H](NC(=O)CCC)c2ccccc2)C3(C)C1(C)C (stereo partly specified),114
17,CCOC(=O)N[C@@H](c1ccsc1)[C@@H](O)C(=O)OC1CC2C(C)(C)C1(C)[C@@]13C[C@@H](C)c4ccccc4[C@@]21O3 (stereo partly specified),58
18,COC(=O)N[C@@H](c1ccc(O)cc1)[C@@H](O)C(=O)OC1CC2C(C)(C)C1(C)[C@@]13CC(C)c4ccccc4[C@@]21O3 (stereo partly specified),293
19,CCOC(=O)N[C@@H](c1ccc(O)cc1)[C@@H](O)C(=O)OC1CC2C(C)(C)C1(C)[C@@]13C[C@H](C)c4ccccc4[C@@]21O3 (stereo partly specified),306
20,C[C@H]1C[C@@]23O[C@]2(c2ccccc21)C1CC(OC(=O)[C@H](O)[C@@H](NC(=O)NC(C)(C)C)c2ccccc2)C3(C)C1(C)C (stereo partly specified),153
21,C=C1C[C@@]23O[C@]2(c2ccccc21)C1CC(OC(=O)[C@H](O)[C@@H](NC(=O)OCC)c2cccnc2)C3(C)C1(C)C (stereo partly specified),65
22,CCCC(=O)N[C@@H](c1ccncc1)[C@@H](O)C(=O)OC1CC2C(C)(C)C1(C)[C@@]13CC(C)c4ccccc4[C@@]21O3 (stereo partly specified),862
23,C=C1C[C@@]23O[C@]2(c2ccccc21)C1CC(OC(=O)[C@H](O)[C@@H](NC(=O)OCC)c2ccoc2)C3(C)C1(C)C (stereo partly specified),119
24,CC(C)NC(=O)N[C@@H](c1ccccc1)[C@@H](O)C(=O)OC1CC2C(C)(C)C1(C)[C@@]13C[C@H](C)c4ccccc4[C@@]21O3 (stereo partly specified),150
25,C=C1C[C@@]23O[C@]2(c2ccccc21)C1CC(OC(=O)[C@H](O)[C@@H](NC(=O)NCCCC)c2ccccc2)C3(C)C1(C)C (stereo partly specified),68
26,C=C1C[C@@]23O[C@]2(c2ccccc21)C1CC(OC(=O)[C@H](O)[C@@H](NC(=O)OCC)c2cccc(F)c2)C3(C)C1(C)C (stereo partly specified),106
27,CC(C)NC(=O)N[C@@H](c1ccsc1)[C@@H](O)C(=O)OC1CC2C(C)(C)C1(C)[C@@]13CC(C)c4ccccc4[C@@]21O3 (stereo partly specified),56
